Like-named read-outs stand apart in the source and are kept apart here.
Key:
AmpC (P. aeruginosa) = AmpC (P. aeruginosa) (Pseudomonas aeruginosa (strain ATCC 15692 / DSM 22644 / CIP 104116 / JCM 14847 / LMG 12228 / 1C / PRS 101 / PAO1), UniProt P24735); assay: biochemical
Experimental: The Class C enzyme activities were measured in the presence of the test inhibitor in spectrophotometric assay against the commercially available substrate, nitrocefin. The enzyme AmpC (P. aeruginosa.), and the substrate, were dissolved in 100 mM KH2PO4 buffer (pH 7). The buffer also contains 0.005% BSA. The test inhibitor was dissolved in DMSO and diluted 1:20 in the assay, resulting in a final concentration range of 50 μM to 0.0002 μM. In a 96-well microplate, the test inhibitor was incubated with the beta-lactamase enzyme for 40 minutes at ambient temperature, the substrate solution was added, and the incubation continued for another 40 minutes. […] The IC50 value was determined from semi logarithmic plots of enzyme inhibition versus inhibitor concentration, with a curve generated using a 4-parameter fit.

KPC-2 (K. pneumoniae) = KPC-2 (K. pneumoniae) (Klebsiella pneumoniae, UniProt Q9F663); assay: biochemical
Chain of KPC-2 (K. pneumoniae) (Q9F663 25-293 limits assumed): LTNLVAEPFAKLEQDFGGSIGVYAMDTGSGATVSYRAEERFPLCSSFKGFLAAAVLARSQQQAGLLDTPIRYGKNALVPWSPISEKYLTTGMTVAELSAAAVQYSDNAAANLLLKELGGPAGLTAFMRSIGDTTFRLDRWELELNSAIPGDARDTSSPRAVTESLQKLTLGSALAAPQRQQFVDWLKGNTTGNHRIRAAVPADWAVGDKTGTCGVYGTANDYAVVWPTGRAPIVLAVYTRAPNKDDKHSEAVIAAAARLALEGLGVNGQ

[1] = Table 3, read-out: P.a. AmpC IC50
[2] = Table 3, read-out: K.p. KPC-2 IC50

Chain of AmpC (P. aeruginosa) (P24735 27-397): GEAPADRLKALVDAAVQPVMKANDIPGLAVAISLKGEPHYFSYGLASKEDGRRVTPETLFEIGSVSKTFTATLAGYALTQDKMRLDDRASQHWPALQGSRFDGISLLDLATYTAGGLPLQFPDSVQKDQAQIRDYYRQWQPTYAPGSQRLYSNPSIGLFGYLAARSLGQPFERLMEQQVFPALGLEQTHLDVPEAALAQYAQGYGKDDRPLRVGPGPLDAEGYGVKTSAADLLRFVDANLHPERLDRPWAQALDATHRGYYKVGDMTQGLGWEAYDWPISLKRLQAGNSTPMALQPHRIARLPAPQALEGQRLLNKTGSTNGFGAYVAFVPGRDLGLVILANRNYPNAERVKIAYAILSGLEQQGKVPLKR

| SMILES | IC50 (AmpC (P. aeruginosa); [1]) [µM] | IC50 (KPC-2 (K. pneumoniae); [2]) [µM] | IC50 (KPC-2 (K. pneumoniae); K.p. KPC-2 IC50, Table 3) [µM] | IC50 (AmpC (P. aeruginosa)) [µM] |
| --- | --- | --- | --- | --- |
| O=C(NC1CCCNC1)[C@@H]1CC[C@@H]2CN1C(=O)N2OS(=O)(=O)O (single isomer, unassigned) [Example 19b] | 0.48 | 0.24 |  |  |
| O=C(NC1CCNC1)[C@@H]1CC[C@@H]2CN1C(=O)N2OS(=O)(=O)O (stereo in doubt) [Example 14, (2S,5R)-7-oxo-N-[(3R)-pyrrolidin-3-yl]-6-(sulfooxy)-1,6-diazabicyclo[3.2.1]octane-2-carboxamide] | 0.11 |  | 0.355 |  |
| O=C(N[C@H]1CCNC[C@H]1F)[C@@H]1CC[C@@H]2CN1C(=O)N2OS(=O)(=O)O [Example 15, (2S,5R)—N-[(3R,4S)-3-Fluoropiperidin-4-yl]-7-oxo-6-(sulfooxy)-1,6-diazabicyclo[3.2.1]octane-2-carboxamide] |  | 0.13 |  | 0.049 |
| O=C(Nc1ccc2c(c1)CCNC2)[C@@H]1CC[C@@H]2CN1C(=O)N2OS(=O)(=O)O [Example 16, (2S,5R)-7-Oxo-6-(sulfooxy)-N-(1,2,3,4-tetrahydroisoquinolin-6-yl)-1,6-diazabicyclo[3.2.1]octane-2-carboxamide] |  | 0.019 |  | 0.014 |
| O=C(Nc1ccc(C2CCNCC2)cn1)[C@@H]1CC[C@@H]2CN1C(=O)N2OS(=O)(=O)O [Example 17, (2S,5R)-7-Oxo-N-(5-piperidin-4-ylpyridin-2-yl)-6-(sulfooxy)-1,6-diazabicyclo[3.2.1]octane-2-carboxamide] | 0.006 |  |  |  |
| O=C(OCC1CCNCC1)[C@@H]1CC[C@@H]2CN1C(=O)N2OS(=O)(=O)O [Example 18, Piperidin-4-ylmethyl(2S,5R)-7-oxo-6-(sulfooxy)-1,6-diazabicyclo[3.2.1]octane-2-carboxylate] | 0.18 | 0.01 |  |  |
| O=C(NC1CCCNC1)[C@@H]1CC[C@@H]2CN1C(=O)N2OS(=O)(=O)O (some centres unmarked) [Example 19a] | 0.064 | 0.48 |  |  |
| O=C(NC1CNC1)[C@@H]1CC[C@@H]2CN1C(=O)N2OS(=O)(=O)O [Example 20] | 1 | 0.017 |  |  |
| O=C(N[C@@H]1CCNC1)[C@@H]1CC[C@@H]2CN1C(=O)N2OS(=O)(=O)O [Example 21] | 29.1 |  | 4.3 |  |
| O=C(N[C@@H]1CCCNCC1)[C@@H]1CC[C@@H]2CN1C(=O)N2OS(=O)(=O)O [Example 22] |  | 0.225 |  | 0.52 |
| CN1CCC(NC(=O)[C@@H]2CC[C@@H]3CN2C(=O)N3OS(=O)(=O)O)CC1 [Example 23] | 0.5 | 0.24 |  |  |
| O=C(N[C@H]1CCNC[C@@H]1F)[C@@H]1CC[C@@H]2CN1C(=O)N2OS(=O)(=O)O [Example 24] |  | 0.09 |  | 0.11 |
| O=C(N[C@@H]1CCNC[C@@H]1F)[C@@H]1CC[C@@H]2CN1C(=O)N2OS(=O)(=O)O [Example 25] |  | 0.27 |  | 0.02 |
| CO[C@H]1CNCC[C@H]1NC(=O)[C@@H]1CC[C@@H]2CN1C(=O)N2OS(=O)(=O)O [Example 26] |  |  | 0.29 | 0.12 |
| O=C(NC1CCS(=O)(=O)CC1)[C@@H]1CC[C@@H]2CN1C(=O)N2OS(=O)(=O)O [Example 27] | 0.0095 | 0.15 |  |  |
| N[C@@H]1CNC[C@H]1NC(=O)[C@@H]1CC[C@@H]2CN1C(=O)N2OS(=O)(=O)O [Example 28] | 0.74 | 0.66 |  |  |
| O=C(N[C@@H]1CNC[C@H]1O)[C@@H]1CC[C@@H]2CN1C(=O)N2OS(=O)(=O)O [Example 29] | 2.5 | 0.25 |  |  |
| O=C(N[C@@H]1CNC[C@@H]1O)[C@@H]1CC[C@@H]2CN1C(=O)N2OS(=O)(=O)O [Example 30] | 2.25 | 0.52 |  |  |
| O=C(N[C@@H]1CNC[C@@H]1F)[C@@H]1CC[C@@H]2CN1C(=O)N2OS(=O)(=O)O [Example 31] |  |  | 0.19 | 0.15 |
| O=C(N[C@H]1CNC[C@H]1F)[C@@H]1CC[C@@H]2CN1C(=O)N2OS(=O)(=O)O [Example 32] |  |  | 0.71 | 0.019 |
| O=C(N[C@H]1CCN(C2CCNCC2)C1=O)[C@@H]1CC[C@@H]2CN1C(=O)N2OS(=O)(=O)O [Example 33] |  | 0.021 |  | 0.62 |
| O=C(N[C@@H]1CCN(C2CCNCC2)C1=O)[C@@H]1CC[C@@H]2CN1C(=O)N2OS(=O)(=O)O [Example 34] |  | 0.28 |  | 0.045 |
| O=C(N[C@@H]1CCCNC[C@@H]1F)[C@@H]1CC[C@@H]2CN1C(=O)N2OS(=O)(=O)O [Example 35] | 0.013 | 0.15 |  |  |
| O=C(N[C@H]1CCCNC[C@H]1F)[C@@H]1CC[C@@H]2CN1C(=O)N2OS(=O)(=O)O [Example 36] | 0.018 | 0.13 |  |  |
| O=C(NCC1(F)CNC1)[C@@H]1CC[C@@H]2CN1C(=O)N2OS(=O)(=O)O [Example 37] | 0.04 | 0.12 |  |  |
| O=C(NCC1CCCN1)[C@@H]1CC[C@@H]2CN1C(=O)N2OS(=O)(=O)O (some centres unmarked) [Example 38] | 0.25 | 0.12 |  |  |
| O=C(NCC1CCCCN1)[C@@H]1CC[C@@H]2CN1C(=O)N2OS(=O)(=O)O (some centres unmarked) [Example 39] | 0.53 | 0.19 |  |  |
